# Experimental data as given in US12454529B2, “Piperazine cyclic ureas” (SIRONAX LTD., priority 2020, dated 2025).
# System: HT-29 cells
# Assay: HT-29 cell necrosis/necroptosis inhibition (TNF-α + SMAC mimetic + zVAD-FMK; CellTiter-Glo cell viability)
# Type: cell-based
# Settings: HT-29 cells, TNF-α 10 ng/ml + SMAC mimetic 6 μM + zVAD-FMK 10 μM, 20 hours; geometric mean, 10 points in duplicate; read-out: EC50 (Cell activity; Necrosis/Necroptosis Inhibitory Activity, Compounds 143-323)
# How it was run: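 HT-29 cells (~5,000/well) were switched to FBS-free McCOY's 5A holding TNF-α (10 ng/ml), SMAC mimetic (6 μM) and zVAD-FMK (10 μM), then dosed with a 10-point 1:3 series for 20 h at 37 °C. CellTiter-Glo luminescence gave viability; geometric mean EC50 from duplicates.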
row,SMILES,EC50 [nM]
1,"Cc1nc(C)n(-c2nc(N3CCN(C(=O)N4N=CCC4c4cnc(C)s4)CC3)ncc2F)n1 (centres unmarked) [Compound 214, (4-(4-(3,5-dimethyl-1H-1,2,4-triazol-1-yl)-5-fluoropyrimidin-2-yl)piperazin-1-yl)(5-(2-methylthiazol-5-yl)-4,5-dihydro-1H-pyrazol-1-yl)methanone]",0.1 to 100

# Same assay, conditions: Homo sapiens, HT-29, 20 h, read-out: EC50 (Cell activity; Necrosis/Necroptosis Inhibitory Activity, Compounds 1-142)
row,SMILES,EC50 [nM]
1,"Cc1nnnn1-c1ccnc(N2CCN(C(=O)N3N=CC[C@H]3c3cncc(C#N)c3)CC2)n1 [Compound 99, (S)-5-(1-(4-(4-(5-methyl-1H-tetrazol-1-yl)pyrimidin-2-yl)piperazine-1-carbonyl)-4,5-dihydro-1H-pyrazol-5-yl)nicotinonitrile]",0.1 to 100

# Same assay, conditions: Homo sapiens; HT-29 cells, TNF-α 10 ng/ml + SMAC mimetic 6 μM + zVAD-FMK 10 μM, 20 hours; geometric mean, 10 points in duplicate; read-out: EC50 (Cell activity; Necrosis/Necroptosis Inhibitory Activity, Compounds 1-142)
row,SMILES,EC50 [nM]
1,"CCn1c(C)nn(-c2nc(N3CCN(C(=O)N4N=CC[C@H]4c4cc(F)cc(C#N)c4)CC3)ncc2F)c1=O [Compound 97, (S)-3-(1-(4-(4-(4-ethyl-3-methyl-5-oxo-4,5-dihydro-1H-1,2,4-triazol-1-yl)-5-fluoropyrimidin-2-yl)piperazine-1-carbonyl)-4,5-dihydro-1H-pyrazol-5-yl)-5-fluorobenzonitrile]",0.1 to 100
2,"N#Cc1cc(F)cc([C@@H]2CC=NN2C(=O)N2CCN(c3ncc(F)c(-n4cnc(Cl)n4)n3)CC2)c1 [Compound 126, (S)-3-(1-(4-(4-(3-chloro-1H-1,2,4-triazol-1-yl)-5-fluoropyrimidinyl)piperazine-1-carbonyl)-4,5-dihydro-1H-pyrazol-5-yl)-5-fluorobenzonitrile]",0.1 to 100
3,"Cc1cn(-c2nc(N3CCN(C(=O)N4N=CC[C@H]4c4cc(F)cc(C#N)c4)CC3)ncc2F)c(C#N)n1 [Compound 16, (S)-1-(2-(4-(5-(3-cyano-5-fluorophenyl)-4,5-dihydro-1H-pyrazole-1-carbonyl)piperazin-1-yl)-5-fluoropyrimidin-4-yl)-4-methyl-1H-imidazole-2-carbonitrile]",0.1 to 100
4,"COCCn1nc(C)c(-c2nc(N3CCN(C(=O)N4N=CC[C@H]4c4cc(F)cc(F)c4)CC3)ncc2F)c1C [Compound 120, (S)-(5-(3,5-difluorophenyl)-4,5-dihydro-1H-pyrazol-1-yl)(4-(5-fluoro-4-(1-(2-methoxyethyl)-3,5-dimethyl-1H-pyrazol-4-yl)pyrimidin-2-yl)piperazin-1-yl)methanone]",0.1 to 100
5,"Cn1nccc1-c1nc(N2CCN(C(=O)N3N=CC[C@H]3c3cc(F)cc(C#N)c3)CC2)ncc1F [Compound 69, (S)-3-fluoro-5-(1-(4-(5-fluoro-4-(1-methyl-1H-pyrazol-5-yl)pyrimidin-2-yl)piperazine-1-carbonyl)-4,5-dihydro-1H-pyrazol-5-yl)benzonitrile]",0.1 to 100
6,"O=C(N1CCN(c2nccc(-c3nnn[nH]3)n2)CC1)N1N=CC[C@H]1c1cc(F)cc(F)c1 [Compound 4, (S)-(4-(4-(1H-tetrazol-5-yl)pyrimidin-2-yl)piperazin-1-yl)(5-(3,5-difluorophenyl)-4,5-dihydro-1H-pyrazol-1-yl)methanone]",0.1 to 100

# Same assay, conditions: Homo sapiens; HT-29 cells, TNF-α 10 ng/ml + SMAC mimetic 6 μM + zVAD-FMK 10 μM, 20 hours; geometric mean, 10 points in duplicate; read-out: EC50 (Cell activity; Necrosis/Necroptosis Inhibitory Activity, Compounds 143-323)
row,SMILES,EC50 [nM]
1,"Cc1nc(C(F)(F)F)nn1-c1nc(N2CCN(C(=O)N3N=CC[C@H]3c3cc(F)cc(C#N)c3)CC2)ncc1F [Compound 207, (S)-3-fluoro-5-(1-(4-(5-fluoro-4-(5-methyl-3-(trifluoromethyl)-1H-1,2,4-triazol-1-yl)pyrimidin-2-yl)piperazine-1-carbonyl)-4,5-dihydro-1H-pyrazol-5-yl)benzonitrile]",0.1 to 100
2,"O=C(N1CCN(c2ncc(F)c(-n3cnc(C(F)(F)F)n3)n2)CC1)N1N=CC[C@H]1c1cncc(F)c1 [Compound 314, (S)-(4-(5-fluoro-4-(3-(trifluoromethyl)-1H-1,2,4-triazol-1-yl)pyrimidin-2-yl)piperazin-1-yl)(5-(5-fluoropyridin-3-yl)-4,5-dihydro-1H-pyrazol-1-yl)methanone]",0.1 to 100
3,"Cc1nnc(-c2nc(N3CCN(C(=O)N4N=CC[C@H]4c4cc(F)cc(F)c4)CC3)ncc2F)o1 [Compound 187, (S)-(5-(3,5-difluorophenyl)-4,5-dihydro-1H-pyrazol-1-yl)(4-(5-fluoro-4-(5-methyl-1,3,4-oxadiazol-2-yl)pyrimidin-2-yl)piperazin-1-yl)methanone]",0.1 to 100
4,"Cc1cnc(C2CC=NN2C(=O)N2CCN(c3nc(-c4c(C)cnn4C)ncc3F)CC2)s1 (centres unmarked) [Compound 145, (4-(2-(1,4-dimethyl-1H-pyrazol-5-yl)-5-fluoropyrimidin-4-yl)piperazin-1-yl)(5-(5-methylthiazol-2-yl)-4,5-dihydro-1H-pyrazol-1-yl)methanone]",0.1 to 100
5,"Cc1cnc([C@@H]2CC=NN2C(=O)N2CCN(c3ncc(F)c(-c4ncnn4C)n3)CC2)s1 [Compound 318, (S)-(4-(5-fluoro-4-(1-methyl-1H-1,2,4-triazol-5-yl)pyrimidin-2-yl)piperazin-1-yl)(5-(5-methylthiazol-2-yl)-4,5-dihydro-1H-pyrazol-1-yl)methanone]",0.1 to 100
6,"Cc1nc(C)n(-c2nc(N3CCN(C(=O)N4N=CC[C@@H]4c4cnc(C)s4)CC3)ncc2F)n1 [Compound 239, (R)-(4-(4-(3,5-dimethyl-1H-1,2,4-triazol-1-yl)-5-fluoropyrimidinyl)piperazin-1-yl)(5-(2-methylthiazol-5-yl)-4,5-dihydro-1H-pyrazol-1-yl)methanone]",1000 to 10000
7,"CC(=O)Nc1c(C)nn(-c2nc(N3CCN(C(=O)N4N=CC[C@H]4c4cc(F)cc(F)c4)CC3)ncc2F)c1C [Compound 193, (S)—N-(1-(2-(4-(5-(3,5-difluorophenyl)-4,5-dihydro-1H-pyrazole-1-carbonyl)piperazin-1-yl)-5-fluoropyrimidin-4-yl)-3,5-dimethyl-1H-pyrazol-4-yl)acetamide]",0.1 to 100
8,"Cc1nc(C2CC=NN2C(=O)N2CCN(c3nc(-c4c(C)cnn4C)ncc3F)CC2)cs1 (centres unmarked) [Compound 158, (4-(2-(1,4-dimethyl-1H-pyrazol-5-yl)-5-fluoropyrimidin-4-yl)piperazinyl)(5-(2-methylthiazol-4-yl)-4,5-dihydro-1H-pyrazol-1-yl)methanone]",0.1 to 100
9,"Cc1cnn(C)c1-c1ncc(F)c(N2CCN(C(=O)N3N=CCC3c3ncccc3Cl)CC2)n1 (centres unmarked) [Compound 261, (5-(3-chloropyridin-2-yl)-4,5-dihydro-1H-pyrazol-1-yl)(4-(2-(1,4-dimethyl-1H-pyrazol-5-yl)-5-fluoropyrimidin-4-yl)piperazin-1-yl)methanone]",0.1 to 100
10,"Cc1nn(-c2cc(N3CCN(C(=O)N4N=CC[C@H]4c4cc(F)cc(F)c4)CC3)ncn2)c(C)c1C#N [Compound 280, (S)-1-(6-(4-(5-(3,5-difluorophenyl)-4,5-dihydro-1H-pyrazole-1-carbonyl)piperazin-1-yl)pyrimidin-4-yl)-3,5-dimethyl-1H-pyrazole-4-carbonitrile]",0.1 to 100
11,"Cn1nc(CF)nc1-c1ccnc(N2CCN(C(=O)N3N=CC[C@H]3c3cc(F)cc(C#N)c3)CC2)n1 [Compound 169, (S)-3-fluoro-5-(1-(4-(4-(3-(fluoromethyl)-1-methyl-1H-1,2,4-triazol-5-yl)pyrimidin-2-yl)piperazine-1-carbonyl)-4,5-dihydro-1H-pyrazol-5-yl)benzonitrile]",0.1 to 100
12,"Cc1csc(C2CC=NN2C(=O)N2CCN(c3nc(-c4c(C)cnn4C)ncc3F)CC2)n1 (centres unmarked) [Compound 161, (4-(2-(1,4-dimethyl-1H-pyrazol-5-yl)-5-fluoropyrimidin-4-yl)piperazinyl)(5-(4-methylthiazol-2-yl)-4,5-dihydro-1H-pyrazol-1-yl)methanone]",0.1 to 100
